Here are results for ten molecules from PubChem BioAssay (NCI).

The structures appear in SMILES notation.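 Five compound concentrations were applied to cells in 96-well plates for 48 hours; endpoints were derived by simple linear interpolation of the resulting dose-response curve. GI50: concentration for 50% inhibition of growth. TGI is the concentration that stops growth completely.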

Test systems include LOX IMVI melanoma; MDA-MB-231 breast; OVCAR-5 ovarian; RXF 393 renal; SK-MEL-2 melanoma; SNB-75 CNS; UACC-257 melanoma; UACC-62 melanoma.
Holding throughout (assay): NCI-60 cell line screen, 48 h

For `Nc1c(C(=O)c2cccc(C#CCN3CCOCC3)c2)cnn1-c1ccc(F)cc1`, the GI50 with LOX IMVI melanoma was > 25 µM; with MDA-MB-231 breast it was > 25 µM; in the experiment with OVCAR-5 ovarian, > 25 µM; with RXF 393 renal, > 25 µM; in the experiment on SK-MEL-2 melanoma, > 15.3 µM; in the experiment on SNB-75 CNS it was > 6.15 µM. Further, the GI50 with UACC-257 melanoma is > 18.6 µM; with UACC-62 melanoma, 19.6 µM. The TGI in the experiment with LOX IMVI melanoma, with MDA-MB-231 breast, with OVCAR-5 ovarian, in the experiment with RXF 393 renal, in the experiment on SK-MEL-2 melanoma and in the experiment on SNB-75 CNS was > 25 µM each time. Also, the TGI with UACC-257 melanoma and in the experiment on UACC-62 melanoma was > 25 µM in each case.

As to `S=C=NCc1ccccc1`, the TGI with LOX IMVI melanoma was > 22.5 µM; with MDA-MB-231 breast, 5.14 µM; with OVCAR-5 ovarian, 29.8 µM; in the experiment on RXF 393 renal it was 3.18 µM; with SK-MEL-2 melanoma it was > 59 µM; with SNB-75 CNS, 17.1 µM. Further, the figures for the TGI in the experiment on UACC-257 melanoma and in the experiment with UACC-62 melanoma were 15.2 µM and 14.1 µM, respectively.

Consider `Nc1nc(N)c2c(ccc3nccc32)[nH]1`, for which the GI50 was 0.839 µM with LOX IMVI melanoma; 13.5 µM in the experiment on MDA-MB-231 breast; 12.4 µM in the experiment with OVCAR-5 ovarian; 3.09 µM in the experiment with RXF 393 renal; 10.1 µM with SK-MEL-2 melanoma; 17.2 µM in the experiment with SNB-75 CNS. Further, the GI50 with UACC-257 melanoma is 1.54 µM; with UACC-62 melanoma, 2.67 µM. The TGI in the experiment on LOX IMVI melanoma is 16.6 µM; in the experiment with MDA-MB-231 breast, 50 µM; in the experiment on OVCAR-5 ovarian it was > 100 µM; with RXF 393 renal it was 17.8 µM; in the experiment with SK-MEL-2 melanoma, 37.1 µM; in the experiment on SNB-75 CNS, 89.4 µM. Further, the TGI with UACC-257 melanoma came out at 17.9 µM; in the experiment with UACC-62 melanoma, 17.6 µM.

With `Cc1cc2c3ccccc3ccc2[n+]2ccccc12`, the GI50 was 21.5 µM in the experiment with LOX IMVI melanoma; 18.5 µM in the experiment on MDA-MB-231 breast; 30.3 µM with OVCAR-5 ovarian; 14.3 µM in the experiment on RXF 393 renal; 6.26 µM in the experiment with SK-MEL-2 melanoma; 4.66 µM in the experiment with SNB-75 CNS. Further, the GI50 with UACC-257 melanoma is 6.17 µM; in the experiment with UACC-62 melanoma, 6 µM. Moreover, the TGI with LOX IMVI melanoma is 91.6 µM; in the experiment with MDA-MB-231 breast, > 100 µM; with OVCAR-5 ovarian it was > 100 µM; with RXF 393 renal, > 84.4 µM; with SK-MEL-2 melanoma it was 22.7 µM; in the experiment on SNB-75 CNS it was > 33.7 µM. Moreover, the TGI in the experiment on UACC-257 melanoma came out at 27.5 µM; with UACC-62 melanoma, 20.4 µM.

Consider `Nc1c(C(=O)c2cccc(CCC3(O)CCCC3)c2)cnn1-c1ccc(F)cc1`, for which the GI50 is > 25 µM in the experiment with LOX IMVI melanoma; > 20.9 µM in the experiment on MDA-MB-231 breast; > 25 µM in the experiment on OVCAR-5 ovarian; 16.9 µM with RXF 393 renal; > 25 µM in the experiment on SK-MEL-2 melanoma; 8.47 µM in the experiment on SNB-75 CNS. The GI50 in the experiment on UACC-257 melanoma was 10 µM; in the experiment on UACC-62 melanoma, 12.5 µM. In addition, the TGI in the experiment with LOX IMVI melanoma, in the experiment on MDA-MB-231 breast, with OVCAR-5 ovarian, in the experiment on RXF 393 renal, in the experiment on SK-MEL-2 melanoma and in the experiment on SNB-75 CNS was > 25 µM each time. In addition, the TGI in the experiment with UACC-257 melanoma and in the experiment on UACC-62 melanoma was > 25 µM throughout.

For `OCCNc1ncnc2c1ncn2C1OC(CO)C(O)C1O` (centres undefined), the TGI in the experiment on LOX IMVI melanoma was > 100 µM; in the experiment on MDA-MB-231 breast, 89.4 µM; in the experiment on OVCAR-5 ovarian, > 100 µM; with RXF 393 renal it was > 100 µM; in the experiment on SK-MEL-2 melanoma it was > 100 µM; in the experiment on SNB-75 CNS, > 100 µM. Further, the TGI with UACC-257 melanoma and in the experiment on UACC-62 melanoma was > 100 µM each time.

As to `Nc1ccn(C2CC(O)C(CO)O2)c(=O)n1` (centres undefined), the GI50 with LOX IMVI melanoma, with MDA-MB-231 breast, with OVCAR-5 ovarian, in the experiment on RXF 393 renal, in the experiment on SK-MEL-2 melanoma and in the experiment on SNB-75 CNS was > 5000 µM in each case. Further, the GI50 with UACC-257 melanoma and in the experiment on UACC-62 melanoma was > 5000 µM each time. The TGI in the experiment with LOX IMVI melanoma, in the experiment on MDA-MB-231 breast, with OVCAR-5 ovarian, in the experiment on RXF 393 renal, in the experiment with SK-MEL-2 melanoma and in the experiment on SNB-75 CNS was > 5000 µM each time. Moreover, the TGI in the experiment on UACC-257 melanoma and with UACC-62 melanoma was > 5000 µM throughout.

As to `CCOC(=O)Cn1c(C)c(/C=N/NC(=O)c2cc3c(ccc4ccccc43)o2)c2ccccc21`, the GI50 in the experiment on LOX IMVI melanoma was 0.537 µM; in the experiment with MDA-MB-231 breast, 0.702 µM; in the experiment on OVCAR-5 ovarian, 0.872 µM; in the experiment on RXF 393 renal, 0.319 µM; in the experiment on SK-MEL-2 melanoma it was 0.77 µM; with SNB-75 CNS, 0.244 µM. For the same molecule, the GI50 in the experiment with UACC-257 melanoma is 2.38 µM; with UACC-62 melanoma, 0.3 µM. Besides, the TGI in the experiment on LOX IMVI melanoma came to 2.78 µM; in the experiment with MDA-MB-231 breast it was 3.33 µM; in the experiment on OVCAR-5 ovarian, 10.7 µM; in the experiment with RXF 393 renal, 1.08 µM; in the experiment on SK-MEL-2 melanoma, 7.05 µM; in the experiment with SNB-75 CNS it was 1.42 µM. For the same molecule, the TGI in the experiment on UACC-257 melanoma was > 30.4 µM; in the experiment on UACC-62 melanoma, 11 µM.

As to `O=c1oc2ccc(Cl)cc2c(=O)n1-c1cc(C(F)(F)F)cc(C(F)(F)F)c1`, the GI50 in the experiment on LOX IMVI melanoma was 0.366 µM; with MDA-MB-231 breast it was 0.289 µM; with OVCAR-5 ovarian, 0.423 µM; with RXF 393 renal, 0.228 µM; in the experiment on SK-MEL-2 melanoma it was 0.236 µM; in the experiment on SNB-75 CNS, 0.201 µM. In addition, the values for the GI50 with UACC-257 melanoma and in the experiment with UACC-62 melanoma were 0.233 µM and 0.147 µM, respectively. Moreover, the TGI in the experiment on LOX IMVI melanoma stood at 2.33 µM; with MDA-MB-231 breast it was 4.36 µM; with OVCAR-5 ovarian, 17.4 µM; in the experiment with RXF 393 renal, 0.746 µM; in the experiment on SK-MEL-2 melanoma, 0.846 µM; with SNB-75 CNS it was 0.786 µM. Further, the TGI in the experiment with UACC-257 melanoma stood at 1.6 µM; in the experiment on UACC-62 melanoma, 0.673 µM.

Regarding `COc1cccc(-n2ncc3c(N/N=C/c4ccc(S(C)(=O)=O)cc4)ncnc32)c1`, the GI50 is 2.34 µM with LOX IMVI melanoma; 9.09 µM in the experiment with MDA-MB-231 breast; > 25 µM with OVCAR-5 ovarian; 2.2 µM in the experiment on RXF 393 renal; 9.94 µM in the experiment on SK-MEL-2 melanoma; 1.89 µM in the experiment on SNB-75 CNS. The GI50 in the experiment with UACC-257 melanoma is > 18 µM; in the experiment with UACC-62 melanoma it was 3.47 µM. Further, the TGI with LOX IMVI melanoma is > 25 µM; with MDA-MB-231 breast, > 24.1 µM; with OVCAR-5 ovarian, > 25 µM; in the experiment with RXF 393 renal, 8.76 µM; with SK-MEL-2 melanoma, > 25 µM; with SNB-75 CNS, 4.32 µM. In addition, the TGI in the experiment on UACC-257 melanoma was > 25 µM; in the experiment on UACC-62 melanoma, > 16.9 µM.
